Laboratory results reported in patent US10780094B2, “Use of carbonic anhydrase inhibitors for treatment of neurological and psychiatric disorders” (New York University, priority 2016, dated 2020).

Tests used:
[1] = Wright et al., 2008; cited from earlier work
[2] = tested on: mitochondria isolated from ECs (D3 cells); assay: Mitochondrial H2O2 production (Amplex Red) after Aβ challenge; assay type: cell-based, human; details: ATZ at lower concentrations than MTZ
Protocol: Cells were plated on 6-wells plates and treated with the peptides and/or drugs for the experimental times. Plates were centrifuged for 10 min at 1.000 RPM and washed twice with PBS 1×. After that, 500 μL of homogenization buffer (75 mM sucrose, 225 mM mannitol, 5 mM Tris-HCl pH=7.4, 1 mM PMSF and protease inhibitor cocktail) was added. Cells were scraped in this buffer, collected in glass tubes and grinded exactly 80 times with a pellet pestle, keeping everything always on ice. Cells were then centrifuged at 2.800 RPM for 5 min at 4° C. The supernatant was collected and centrifuged again at 2.800 RPM for 5 min at 4° C. The supernatant was again collected and centrifuged at 10.500 RPM for another 5 min at 4° C. After this, the supernatant was discarded and the pellet was re-suspended in 100 μL of homogenization buffer. The samples were centrifuged again at 10.500 RPM for 10 min at 4° C., the supernatant was discarded and the pellets (mitochondrial fractions) were re-suspended on 50 μL of homogenization buffer. […] After that, mitochondrial fractions containing equal amounts of mitochondrial proteins were placed on 96-wells microplate absorbance microtiter (ThermoFisher, Waltham, Mass., US) and the AmplexRed assay was ran, following the instructions provided by the manufacturer. Absorbance was measured by using a FlexStation (Molecular Devices, Sunnyvalem Calif., US).

Glioma cells [3] = assay: Cellular ROS (CellROX); assay type: cell-based, human; details: Aβ42 in the presence or absence of MTZ; 24 hours
Protocol: For the last 30 minutes, the cells were incubated in the experimental medium at 37° C. with 5 μM CellROX Deep Red (Life Technologies) and 1 μg/ml Hoechst Stain (Immunochemistry Technologies, Bloomington, Minn.), as described by the manufacturer, followed by washes. Fluorescence was measured using a FlexStation 3 Multi-Mode Microplate Reader (Molecular Devices, Sunnyvale, Calif.).

Glioma cells [4] = assay: Aβ-induced mitochondrial Cytochrome C release; assay type: cell-based, human
Protocol: (§1) Both SH-SY5Y cells and Glioma cells were plated on glass chamber slides (Thermo Fisher Scientific, Rochester, N.Y.). Slides were pre-coated with poly-D-lysine for SH-SY5Y cells. After seeding, cells were allowed to attach for 1 day prior to treatment with Aβ in the presence or absence of MTZ for 24 hours. Cells were then washed with PBS, fixed with 4% paraformaldehyde (10 min, RT) and blocked for 1 hour with 20 mg/ml BSA in PBS containing 0.3% Triton X-100 (PBST). Slides were further incubated with mouse monoclonal anti-CytC antibody (BD Biosciences; 1:200 in PBST containing 5 mg/ml BSA; 2 h, RT) followed by Alexa Fluor 488-conjugated anti-mouse IgG (Life Technologies, Grand Island, N.Y.) 1:200 in PBST with 5 mg/ml BSA for 1 h at RT, as previously described (Fossati et al., 2013). Fluorescence signals were visualized in a Zeiss LSM 510 laser scanning confocal/Confocor2 microscope using a 40×DIC oil immersion objective and LSM 510 software; acquired images were imported into ImageJ (National Institute of Health; http://rsbweb.nih.gov/ij/).
(§2) Subcellular distribution of CytC in amyloid-challenged SH-SY5Y and glioma cells was determined in mitochondrial and cytoplasmic protein extracts prepared using Mitochondria Isolation Kit (MITOISO2, Sigma) following the manufacturer's specifications. Briefly, after amyloid challenge in the presence and absence of Methazolamide, as above, cells were collected by trypsinization, resuspended in 10 mM HEPES, pH 7.5, containing 200 mM mannitol, 70 mM sucrose, 1 mM EGTA added of Protease Inhibitor Cocktail, and homogenized with the aid of a Dounce glass homogenizer. Cell homogenates were centrifuged to remove unbroken cells and nuclei (600×g, 5 min, 4° C.) and supernatants further centrifuged at 11,000×g (5 min, 4° C.) to subfractionate mitochondria. Supernatants, representing the cytosolic fractions as well as mitochondrial fractions were analyzed by CytC ELISA and WB.
(§3) The concentration of CytC in cytosolic and mitochondrial fractions was quantitated by solid phase sandwich ELISA (Quantikine ELISA, human Cytochrome C Immunoassay, R&D Systems) as described by the manufacturer. Prior to the assay, fractions containing cytoplasmic proteins were concentrated on Vivaspin 500 centrifugal concentrators (GE HealthCare, molecular weight cut off 5000), mitochondrial pellets were resuspended in Cell Lysis Buffer provided with the kit, and total protein of the respective fractions was evaluated by BCA protein assay (Thermo Fisher Scientific/Pierce). […] After washing away unbound proteins, wells were further incubated with an HRP-linked monoclonal antibody anti-human CytC, color developed with tetramethylbenzinine peroxidase substrate, and evaluated through quantitation of the Absorbance at 450 nm. […]

SH-SY5Y cells = assay: Aβ-induced mitochondrial Cytochrome C release; assay type: cell-based, human
Protocol: as §1, §2, §3

[5] = 100 μM MTZ together with Aβ42 10 μM, 24 hours
[6] = MTZ 100 and 300 μM, Aβ42 10 μM, 24 h

Structure (SMILES) | well tolerated daily dose in humans [1] | inhibition of H2O2 production, compared with MTZ [2] | levels of cellular ROS (CellROX) (Glioma cells [3]) | release of CytC (immunocytochemistry) (Glioma cells [4]; [5]) | release of CytC by ELISA and Western blot in mitochondrial and cytosolic fractions (Glioma cells [4]; [6]) | release of CytC (immunocytochemistry) (SH-SY5Y cells; [5]) | release of CytC by ELISA and Western blot in mitochondrial and cytosolic fractions (SH-SY5Y cells; [6])
CC(=O)Nc1nnc(S(N)(=O)=O)s1 [ATZ, acetazolamide] | ≤ 1000 mg | more dramatic effect on the inhibition of H2O2 production | – | – | – | – | –
CC(=O)/N=c1/sc(S(N)(=O)=O)nn1C [MTZ, methazolamide] | – | – | did not significantly change | prevented | inhibition | prevented | inhibition
